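These data come from cells grown in 96-well plates and exposed to compound for 48 hours at five concentrations. Here, GI50 denotes the concentration required for 50% inhibition of growth. TGI is the concentration that stops growth completely.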

What all share (test): inhibition of tumour cell growth, NCI panel, 48 h
In test [1] the test system is CCRF-CEM leukemia.
Test [2] has as its system RPMI-8226 leukemia.
The subject of test [3] is SN12C renal.
Test [4] relates to SF-268 CNS.
Test [5] has as its system SNB-19 CNS.
The test system of test [6] is SF-539 CNS.
Test [7] concerns SK-MEL-28 melanoma.
In test [8] the test system is SW-620 colon.
Test [9] deals with SK-OV-3 ovarian.
For test [10], the system named is HOP-92 NSCLC.

In the case of `COc1ccc2c3c([nH]c2c1[N+](=O)[O-])C(C)N(C(=O)/C=C/c1ccccc1)CC3` (stereo unspecified), the TGI in test [1] was above 100 µM; in test [2] it was 9.66 µM; in [3], above 100 µM; in test [4], 4.75 µM; in test [5], above 100 µM; in test [6], 23.2 µM. The TGI in test [7] and in [8] was above 100 µM in each case.

For `C=CC1(C)/C(=N\O)C(C)(CC)C(=O)N1O` (stereo unspecified), the TGI in test [1], in test [9], in test [3], in test [4], in test [5] and in test [6] was above 100 µM each time. Besides, the TGI in [7], in [10] and in [8] was above 100 µM in each case.

As for `O=S(O)CCCCSSCCCCS(=O)(O)=S`, the TGI in test [1], in test [9], in test [3], in [4], in test [5] and in [6] was above 100 µM each time. In addition, the TGI in test [7] and in [8] was above 100 µM each time.

In the case of `COc1cc(/C=C\c2cc(/C=C\c3ccc(O)c(OC)c3)n(C(=O)Nc3ccc(C(F)(F)F)cc3)n2)ccc1O`, the GI50 in test [2] is 2090 nM; in [9], 4.02 µM; in test [3] it was 2730 nM; in test [4] it was 2.8 µM; in test [5], 3.16 µM; in test [6] it was 2370 nM. For the same compound, the GI50 in test [7] was 2190 nM; in test [10] it was 2350 nM; in test [8], 2560 nM. Further, the TGI in test [2] is 6.59 µM; in test [9] it was 66.7 µM; in test [3], 9.9 µM; in [4], 15.4 µM; in test [5] it was 11.2 µM; in test [6] it was 7.45 µM. Also, the TGI in test [7] came to 5.9 µM; in test [10], 6.79 µM; in test [8], 5.9 µM.

On to `COc1cccc(C(=O)O)c1Cc1cccc2ccccc12`, for which the TGI in [1], in test [9], in test [3], in [4], in [5] and in [7] was above 100 µM throughout. This compound gave a TGI in test [8] above 100 µM.

Take `CC(=O)C1C(=O)C(=O)N(c2ccc(Cl)cc2C)C1=O` (stereo unspecified): the TGI in test [1], in test [3], in [4], in test [5], in test [6] and in test [7] was above 100 µM in each case. The TGI in [10] and in [8] was above 100 µM throughout.

On to `COc1cc([N+](=O)[O-])c(S(=O)(=O)O)cc1-n1nc(-c2ccccc2)n[n+]1-c1cc(S(=O)(=O)[O-])c([N+](=O)[O-])cc1OC`, for which the TGI in test [1], in test [2], in test [9], in [3], in [4] and in test [5] was above 100 µM in each case. The TGI in test [6], in test [7] and in [8] was above 100 µM throughout.

`C/C(=C\c1ccccc1)C(O)S(=O)(=O)O` (stereo unspecified): the TGI in [1], in test [2], in test [9], in [3], in [4] and in [5] was above 100 µM in each case. Also, the TGI in test [7] and in test [8] was above 100 µM in each case.

For `CN1CCN(c2ccc(NC3=C(Cl)C(=O)c4ncccc4C3=O)cc2C(F)(F)F)CC1`, the GI50 was 874 nM in test [2]; 1790 nM in test [3]; 3.3 µM in test [4]; 13.6 µM in test [5]; 1740 nM in test [6]; 1990 nM in test [7]. Also, the GI50 in test [10] is 1580 nM; in test [8] it was 1350 nM. Moreover, the TGI in test [2] was 6.66 µM; in [3] it was 3.31 µM; in [4], 14 µM; in test [5], 26.8 µM; in test [6], 3.53 µM; in test [7] it was 3.45 µM. The TGI is 3.03 µM in test [10] and 3.37 µM in test [8].

As to `C#Cc1cccc(N2C(=O)CC(=P(c3ccccc3)(c3ccccc3)c3ccccc3)C2=O)c1`, the TGI was above 100 µM in test [1]; 63.2 µM in test [2]; above 100 µM in test [9]; above 100 µM in test [3]; above 100 µM in [4]; above 100 µM in test [5]. For the same compound, the TGI in [7] and in [8] was above 100 µM in each case.

Take `C=CCCC12CCCC(=O)C1Sc1ccc3ccccc3c12` (stereo unspecified): the TGI in [1] is 53.8 µM; in test [2] it was 42.9 µM; in test [9], 66.4 µM; in test [3] it was 54.4 µM; in [4], above 100 µM; in test [5] it was 96 µM. Also, the TGI was 28.5 µM in test [6], above 100 µM in test [7] and 58.6 µM in [8].

As to `CC(=O)[CH-]C(=O)c1ccccc1.CC(=O)[CH-]C(=O)c1ccccc1.CC(C)CCCC(C)[C@H]1CCC2[C@@H]3CCC4C[C@@H]([O-])CC[C@]4(C)C3CC[C@@]21C.CC(C)CCCC(C)[C@H]1CCC2[C@@H]3CCC4C[C@@H]([O-])CC[C@]4(C)C3CC[C@@]21C.Cl.[Ti+4]` (stereo partly specified), the GI50 in test [1] is above 25 µM; in test [2], above 25000 nM; in [9] it was above 25 µM; in test [3], above 25000 nM; in test [4] it was above 25 µM; in test [5], above 25 µM. For the same compound, the GI50 in test [6], in test [7] and in [8] was above 25000 nM throughout. Also, the TGI in [1], in test [2], in [9], in test [3], in test [4] and in test [5] was above 25 µM in each case. Besides, the TGI in test [6], in test [7] and in test [8] was above 25 µM each time.

(Values after PubChem BioAssay (NCI).)
